Source: patent US20090233999A1, “COMPOSITIONS AND THERAPEUTIC METHODS INVOLVING ISOFLAVONES AND ANALOGUES THEREOF” (NOVOGEN RESEARCH PTY LTD, priority 1999, published 2009)

Legend:
NFκB = NFκB promoter activity, beta-lactamase reporter THP-1 cells stimulated with TNFα; assay type: cell-based; settings: 30 μM; TNFα-stimulated THP-1 cells
Protocol: The assay utilised a genetically modified THP-1 cell line containing a stably-transfected beta-lactamase reporter gene under control of the NFkB response element and GeneBLAzer® beta-lactamase technology (Invitrogen Corp). The cells respond to stimulation with TNFα, causing activation of the NFκB signaling pathway. Co-incubation of cells with TNFα and test material allows quantitative determination of the ability of test material to inhibit TNFa-stimulated beta-lactamase production. An inflammatory index was calculated as the ratio of beta-lactamase product to beta-lactamase substrate.
THP-1 cells were seeded into wells of a 96-well plate in the presence of RPMI 1640 medium. TNFα was added to each well to give a final concentration of 7.5 ng/ml and dialyzed bovine serum was added. Compounds dissolved in DMSO were then added. Each plate also contained no-cell controls, no-serum controls and serum controls. Plates were incubated for 5 h at 37° C. to allow for NFκB-stimulated beta-lactamase production. LiveBLAzer™ FRET B/G Substrate (CCF4-AM) substrate was then added to assay. Once CCFA-AM enters a cell, it is converted to negatively charged CCF4 by endogenous esterases. Excitation of this substrate at 409 nm leads to efficient FRET between the coumarin and fluorescein moieties, resulting in a green fluorescence detectable at 530 nm. The presence of beta-lactamase leads to cleavage of CCF4 and results in a loss of FRET, resulting in a robust blue fluorescent signal detectable at 460 nm. Thus, activity of beta-lactamase (a marker of NFκB-promoter activity) is measured as a product to substrate ratio (blue/green fluorescence ratio: 460 nm/530 nm).

[1] = DPPH free radical scavenging; settings: DPPH 0.1 mM, 20 minutes; read-out: Free radical scavenging ability EC50
Protocol: The antioxidant (free radical trapping) activity of test compounds was assessed using the stable free radical compound 2,2-diphenyl-1-picrylhydrazyl (DPPH). A stock solution of DPPH was prepared at a concentration of 0.1 mM in ethanol and mixed for 10 minutes prior to use. Test compounds at a concentration of 100 μM were reacted with DPPH for 20 minutes, after which time the absorbance at 517 nm was determined and the change in absorbance compared to a reagent blank (DPPH with ethanol alone). A dose response curve was produced for those compounds with free radical scavenging activity (ΔAbs>0.3) at 100 μM. The IC50 value was estimated as the concentration of test compound that caused a 0.6 change in absorbance (with 1.2 absorbance units representing total scavenging of the DPPH radical).

[2] = tested on: Skh:hr-1 albino mice (UV-induced skin thickening); test: Murine model of UV irradiation-induced skin oedema; assay type: in vivo, mouse; settings: for Change in skin thickness (mean ± SD, ×0.01 mm): 0.2 ml of 20 μM topical ×3
From the text: Groups of 4-5 female Skh:hr-1 albino mice were irradiated with 1×3 MED (minimal erythemal dose) of solar simulated UV radiation, provided by a planar bank of 6 UVA tube (Hitachi 40W F40T 10/BL, black light) and one UVB tube (Philips TL 40W/12RS) with radiation filtered through a sheet of 0.125 mm cellulose acetate (Eastman Chemical Products, Kingport, Term, USA) to give 2.96×10-4 W/cm2 UVA and 1.59×10-5 W/cm2 UVB. The distance of the UV lamp from the irradiance table surface was approximately 20 cm and temperature was controlled with an electric fan. During irradiation, the cages were rotated below the lights to reduce the variation in radiation intensity in different positions.
Either test compound (0.2 ml of a 20 μM solution) or vehicle (propylene glycol/ethanol (EtOH)/water 1:2:1) was applied to the irradiated dorsal skin at 30 min, 2 h and 4 h post-irradiation. Dorsal skin fold measurements were made with a spring micrometer prior to and at 24 hr and 48 h post-UV exposure. The difference in skin thickness pre- and post-exposure to UVR was calculated for each mouse, and the differences examined between test compound and vehicle control were analysed using an unpaired two-tailed t test.
The data are presented in tables, as well as graphically as the mean percentage inhibition of skin fold thickness, calculated as [1−[(mean % change skin thickness of test group/mean % change skin thickness of control group)×100]].

IL-6 = IL-6 production by murine splenocytes; assay type: cell-based, mouse; settings: 10 μM; Con A
Protocol: Male Skh-1 (hairless) mice, approximately six weeks old were killed by cervical dislocation. Single cell suspensions were made from the spleen and erythrocytes were lysed in buffer (0.14M NH4Cl, 17 mM Tris, pH 7.2). The remaining splenocytes were cultured in RPMI-1640 (Gibco) supplemented with 10% (v:v) FBS, 2 mM L-glutamine, pen/strep and 50 μM 2-mercaptoethanol. Splenocytes were added to quadruplicate wells containing either the T cell mitogen concanavalin A (Con A, Sigma-Aldrich—0. 4 μg/well), the B-cell mitogen LPS (Sigma-Aldrich—1 μg/well) or no mitogen, as well as test compound at a concentration of 10 μM in DMSO. Samples were analysed after a 3 day incubation at 37° C. in 5% CO2 in air. Cell viability was assessed by adding MTT to each well, incubating for a further 4 hrs and then developing colour with 0.04N HCl in isopropanol. Supernatant samples were frozen at −80° C. and IL-6, IFN-γ and TNFα were detected in triplicate using ELISA kits (BD Biosciences).

PPARγ = target: T1, PPARγ (Homo sapiens, UniProt P37231); test: PPARγ agonist activity, GAL4-PPARγ beta-lactamase reporter HEK293 cells; assay type: cell-based; settings: FIG. 11: 5 μM
T1 construct: host or cells: HEK293 (human embryonic kidney), stably transfected
T1 sequence (P37231 238-503 limits assumed): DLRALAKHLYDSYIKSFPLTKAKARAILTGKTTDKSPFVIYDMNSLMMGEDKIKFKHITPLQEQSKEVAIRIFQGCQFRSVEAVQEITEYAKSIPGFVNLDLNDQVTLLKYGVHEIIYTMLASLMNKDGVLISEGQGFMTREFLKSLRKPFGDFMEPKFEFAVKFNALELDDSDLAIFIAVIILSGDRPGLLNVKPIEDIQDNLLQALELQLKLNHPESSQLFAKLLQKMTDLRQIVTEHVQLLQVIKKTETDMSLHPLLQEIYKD
Protocol: Human HEK293 cells, stably transfected with the PPARγ ligand binding domain fused with the DNA binding domain of the GAL4 protein (GAL4-PPARγ fusion protein), produce beta-lactamase when incubated with PPARγ ligands. Transfected human kidney embryonic cells (Invitrogen Inc., Carlsbad, Calif.) were seeded onto matrigel in 96-well plates and allowed to attach overnight. The following day, vehicle alone (DMSO) or test compound at 1, 5 and 10 μM was added at varying concentrations to cells and incubated for 16-18 hours. Cells were then loaded with a FRET-based fluorescent substrate to assess beta-lactamase activity. Cells were protected from light, and incubated at room temperature for 2 h. Plates were read on a fluorescence plate reader with an excitation wavelength of 409 nm and emission wavelengths of 460 nm and 530 nm. Results were expressed as a ratio of these two wavelengths after the background (cell-free control wells) had been subtracted. PPARγ activity was thus determined by measuring beta-lactamase activity as assessed by a fluorescent product to substrate ratio.

[3] = 24 hrs post-irradiation, vehicle 78 ± 23
[4] = 48 hrs post-irradiation, vehicle 147 ± 37

| SMILES | NFκB promoter activity (NFκB) | EC50 [1] [µM] | Change in skin thickness (mean ± SD, ×0.01 mm) [2, 3] [×0.01 mm] | Change in skin thickness (mean ± SD, ×0.01 mm) [2, 4] [×0.01 mm] | IL-6 production in T cells (IL-6) | PPARγ activation (increase in beta-lactamase activity) (PPARγ) | UV-induced inflammation at 24 hrs ([2]; 24 hrs) | UV-induced inflammation at 48 hrs ([2]; 48 hrs) |
| --- | --- | --- | --- | --- | --- | --- | --- | --- |
| Cc1c(O)ccc2c1OCC(c1cccc(O)c1)=C2 [Cpd. 14, 3′,7-Dihydroxy-8-methylisoflav-3-ene] | significantly inhibited | 47 | 77 ± 5.6 | 137 ± 16 | – | – | – | – |
| COc1ccc(C2=Cc3ccc(O)cc3OC2)cc1OC [Cpd. 18, 7-Hydroxy-3′,4′-dimethoxyisoflav-3-ene] | significantly inhibited | 48 | – | – | reduced | – | – | – |
| Oc1ccc(C2=Cc3ccc(O)c(Br)c3OC2)cc1 [Cpd. 20, 4′,7-Dihydroxy-8-bromoisoflav-3-ene] | significantly inhibited | 24 | 38 ± 4 | 123 ± 39 | most marked | some PPARγ agonist activity | significantly inhibited | – |
| COc1ccc(C2=Cc3ccc(O)c(C)c3OC2)cc1OC [Cpd. 19, 7-Hydroxy-3′,4′-dimethoxy-8-methylisoflav-3-ene] | significantly inhibited | 74 | 63 ± 8.1 | 96 ± 5 | reduced | some PPARγ agonist activity | – | significantly inhibited |
| COc1cccc(C2=Cc3ccc(O)cc3OC2)c1 [Cpd. 16, 7-Hydroxy-3′-methoxyisoflav-3-ene] | – | 45 | 61 ± 13 | 111 ± 15 | reduced | some PPARγ agonist activity | – | – |
| Oc1ccc2c(c1)OCC(c1ccc(Br)cc1)=C2 [Cpd. 21, 4′-Bromo-7-hydroxyisoflav-3-ene] | – | 43 | – | – | – | – | – | – |
